The source made the active and inactive calls. No cut-off for these calls is given here.
Experiments:
[1] = test system: PC-12; test: Neuroprotective activity against H2O2-induced cytotoxicity in rat PC12 cells assessed as increase in cell viability at 10 uM preincubated for 12 hrs followed by replacement with fresh media and H2O2 stimulation for 12 hrs by MTT assay; format: functional, cell-based
[2] = test system: PC-12; test: Cytotoxicity against rat PC12 cells assessed as cell viability at 6.25 to 100 uM incubated for 24 hrs by MTT assay; format: toxicity, cell-based; conditions: pc-12, 24 h, dose 6.25-100 µM
[3] = molecular target: T1, Glycogen synthase kinase-3 beta (Homo sapiens, UniProt P49841); test: Inhibition of human GSK-3beta overexpressed in human HEK293T cells assessed as reduction in GSK-3beta expression level at 0.625 to 10 uM incubated for 24 hrs by Western blot analysis; format: cell-based; conditions: dose 0.625-10 µM
[4] = molecular target: T1, Glycogen synthase kinase-3 beta; test: Inhibition of human GSK-3beta overexpressed in human HEK293T cells assessed as decrease in Tau phosphorylation at t205 at 0.625 to 10 uM incubated for 24 hrs by Western blot analysis; format: cell-based; conditions: dose 0.625-10 µM
[5] = test system: PC-12; test: Neuroprotective activity against rat PC12 cells assessed as decrease in H2O2-induced intracellular ROS production at 2.5 to 10 uM preincubated for 12 hrs followed by replacement with fresh media and H2O2 stimulation for 12 hrs by DCFH-DA staining based flow cytometry; format: functional, cell-based; conditions: dose 2.5-10 µM
[6] = test system: PC-12; test: Neuroprotective activity against rat PC12 cells assessed as decrease in H2O2-induced mitochondrial membrane potential level at 2.5 uM preincubated for 12 hrs followed by replacement with fresh media and H2O2 stimulation for 12 hrs by JC-1 dye based flow cytometry (Rvb= 95.3%); format: functional; parameters: scale not given: the % may be the effect or the level left
[7] = test system: PC-12; test: Neuroprotective activity against rat PC12 cells assessed as decrease in H2O2-induced mitochondrial membrane potential level at 5 uM preincubated for 12 hrs followed by replacement with fresh media and H2O2 stimulation for 12 hrs by JC-1 dye based flow cytometry (Rvb= 95.3%); format: functional; parameters: scale not given: the % may be the effect or the level left
[8] = test system: PC-12; test: Anti-apoptotic activity against H2O2-induced apoptosis in rat PC12 cells assessed as dead cells at 10 uM preincubated for 12 hrs followed by replacement with fresh media and H2O2 stimulation for 12 hrs by Annexin-V/7-AAD staining based flow cytometry (Rvb=4.1%); format: functional
[9] = test system: PC-12; test: Anti-apoptotic activity against H2O2-induced apoptosis in rat PC12 cells assessed as late apoptotic cells at 2.5 uM preincubated for 12 hrs followed by replacement with fresh media and H2O2 stimulation for 12 hrs by Annexin-V/7-AAD staining based flow cytometry (Rvb=2.2 %); format: functional
[10] = test system: PC-12; test: Anti-apoptotic activity against H2O2-induced apoptosis in rat PC12 cells assessed as late apoptotic cells at 5 uM preincubated for 12 hrs followed by replacement with fresh media and H2O2 stimulation for 12 hrs by Annexin-V/7-AAD staining based flow cytometry (Rvb=2.2 %); format: functional
[11] = test system: PC-12; test: Neuroprotective activity against H2O2-induced cytotoxicity in rat PC12 cells assessed as increase in cell viability at 10 uM pretreated with Brusatol for 1hrs and preincubated for 12 hrs followed by replacement with fresh media and H2O2 stimulation for 12 hrs by MTT assay; format: functional, cell-based
[12] = test system: PC12; test: Activation of Nrf2-ARE pathway in rat PC-12 cells assessed as increase in Nrf2 expression level in cytoplasm at 10 uM incubated for 3 hrs by Western blot analysis; format: cell-based; conditions: filed as activator
[13] = test system: Mus musculus; test: Antialzheimer activity in okadaic acid-induced cognitive impairment ICR mouse model assessed as increase of search time in target quadrant at 0.08 to 0.24 mg/kg, iv twice at 3days interval before and after okadaic acid stimulation measured upto 14 days by Morris water maze test relative to control; format: functional, organism-based; conditions: dose 0.08-0.24 mg/kg, time <= 14.0 day

T1 sequence (P49841 whole entry, looked up): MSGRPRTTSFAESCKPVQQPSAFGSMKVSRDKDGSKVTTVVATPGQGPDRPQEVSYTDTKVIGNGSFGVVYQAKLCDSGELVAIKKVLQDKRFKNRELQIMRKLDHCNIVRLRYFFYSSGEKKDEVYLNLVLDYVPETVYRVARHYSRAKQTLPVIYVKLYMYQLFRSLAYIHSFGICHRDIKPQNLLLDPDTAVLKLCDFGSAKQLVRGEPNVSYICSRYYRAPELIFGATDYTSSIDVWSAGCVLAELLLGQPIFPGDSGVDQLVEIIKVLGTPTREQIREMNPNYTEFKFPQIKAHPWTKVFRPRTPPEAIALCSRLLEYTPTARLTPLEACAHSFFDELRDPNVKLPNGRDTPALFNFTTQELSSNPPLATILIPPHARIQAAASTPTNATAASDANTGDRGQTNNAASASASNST

`COc1ccc(-c2ocnc2C(=O)NCCCc2ccc(NC(=O)/C=C/c3cc(C(C)(C)C)c(O)c(C(C)(C)C)c3)cc2)cc1Cl` was tested, and the Activity [1] was “Active”, the Activity [2] was “Non-Toxic” and the inhibition [3] was “Dose-Dependent Effect”. The inhibition [4] was “Dose-Dependent Effect”, the Activity [5] was “Dose-Dependent Effect” and the Activity [6] was 68.4%. The Activity [7] was 72.6%, the Activity [8] was 1.3% and the Activity [9] was 16.4%. For the same molecule, the Activity [10] was 12.9%, the Activity [11] was “inactive” and the Activity [12] was “Active”. For the same molecule, the Activity [13] was “Active”.
